Values quoted from earlier work, collected in patent publication US6589744B2, “Method and kit for identification for nucleic acid modification enzymes and inhibitors thereof” (Syngenta Participations AG, priority 2001, dated 2003).

Molecular target: T1, T4 DNA ligase (Enterobacteria phage T4, UniProt P00970)
T1 sequence (P00970 1-487): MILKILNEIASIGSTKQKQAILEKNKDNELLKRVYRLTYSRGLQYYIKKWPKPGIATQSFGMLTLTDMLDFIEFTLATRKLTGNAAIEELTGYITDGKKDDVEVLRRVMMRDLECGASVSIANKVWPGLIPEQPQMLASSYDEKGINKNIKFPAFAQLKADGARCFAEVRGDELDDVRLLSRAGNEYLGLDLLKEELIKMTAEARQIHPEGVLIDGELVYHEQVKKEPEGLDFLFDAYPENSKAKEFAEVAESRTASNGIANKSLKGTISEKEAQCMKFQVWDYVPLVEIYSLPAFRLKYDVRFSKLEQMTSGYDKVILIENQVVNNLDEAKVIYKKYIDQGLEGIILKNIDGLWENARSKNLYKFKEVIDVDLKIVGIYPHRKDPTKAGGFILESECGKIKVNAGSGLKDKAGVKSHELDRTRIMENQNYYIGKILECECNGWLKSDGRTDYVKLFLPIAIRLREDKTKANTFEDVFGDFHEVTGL
Details: previously determined, radiolabeled substrates and PAGE gel shift assays (Montecucco et al.)

For `COc1cccc2c1C(=O)c1c(O)c3c(c(O)c1C2=O)C[C@@](O)(C(=O)CO)C[C@@H]3O[C@H]1C[C@H](N)[C@@H](O)[C@H](C)O1` [Epirubicin, epirubicin], the IC50 is given as 2700 nM.
